These results are taken from patent publication US10131663B2, “Chemical compounds” (AstraZeneca AB, priority 2016, dated 2018).

The nature of series [1]: Human plasma protein binding (equilibrium dialysis). Format: in vitro ADME. Particulars: dialysis 18 hours. Here is the method: The automated equilibrium dialysis assay in human plasma uses the RED (Rapid Equilibrium Dialysis) Device and sample handling. The assay generally runs over two to three days including delivery of results. After dialysis for 18 hours, plasma and buffer samples are prepared for analysis by liquid chromatography and mass spectrometry. Samples are generally tested in singlicates and quantified by LC/MSMS by using a 7-point calibration curve in plasma. The compounds are pooled together in plasma pools up to 10 compounds. Three reference compounds are used in each run, Propranolol, Metoprolol and Warfarin. Warfarin is used as a control in each pool and Propranolol and Metoprolol are placed randomly in each run. An in-house Excel macro is used for preparation of files for the robot and the mass spectrometer and is also used for the calculations of fraction unbound (fu %) in plasma.
In general terms: In equilibrium dialysis free small molecules cross a membrane that holds back macromolecules.

The nature of series [2]: log D (shake flask, 1-octanol/aqueous buffer). Format: physicochemical. The text has this: The lipophilicity of a drug is an important physical property which may influence many biological and metabolic properties of a compound, for example the absorption, distribution, metabolism, excretion and toxicity profiles of a compound. The distribution coefficient between 1-octanol and aqueous buffer, Log DO/W, at pH 7.4, is the most commonly used measurement of the lipophilicity of a compound. The current method for measurement of Log DO/W is based on the traditional shake flask technique, but with the modification of measuring compounds in mixtures of ten at a time using UPLC with quantitative mass spectrometry (MS) as a method to measure the relative octanol and aqueous concentrations. […] An additional QC sample Caffeine, with low Log D, are used and randomly placed in all runs. The method has been thoroughly validated against the previous shake flask methodologies.

For series [3], the target named is recombinant human Estrogen Receptor alpha ligand binding domain (ER alpha-LBD (GST)) (Homo sapiens (Human), UniProt P03372). The experiment in a line: ERα binding assay (LanthaScreen TR-FRET competition). Particulars: TR-FRET, displacement of Fluormone ES2. As to the method:
The ability of compounds to bind to isolated Estrogen Receptor Alpha Ligand binding domain (ER alpha-LBD (GST)) was assessed in competition assays using a LanthaScreen™ Time-Resolved Fluorescence Resonance Energy Transfer (TR-FRET) detection end-point. […] The assay principle is that ER alpha-LBD (GST) is added to a fluorescent ligand to form a receptor/fluorophore complex. A terbium-labelled anti-GST antibody (Product code PV3551) is used to indirectly label the receptor by binding to its GST tag, and competitive binding is detected by a test compound's ability to displace the fluorescent ligand, resulting in a loss of TR-FRET signal between the Tb-anti-GST antibody and the tracer. The assay was performed as follows with all reagent additions carried out using the Beckman Coulter BioRAPTR FRD microfluidic workstation: • 1. Acoustic dispense 120 nL of the test compound into a black low volume 384 well assay plates. • 2. Prepare 1×ER alpha-LBD/Tb-antiGST Ab in ES2 screening buffer and incubate for 15 minutes. • 3. Dispense 6 μL of the 1×[…]/Tb-anti-GST Ab reagent into each well of the assay plate followed by 6 μL of Fluorophore reagent into each well of the assay plate • 4. Cover the assay plate to protect the reagents from light and evaporation, and incubate at room temperature for 4 hours. • 5.
TR-FRET dose response data obtained with each compound was exported into a suitable software package (such as Origin or Genedata) to perform curve fitting analysis. Competitive ER alpha binding was expressed as an IC50 value.
For orientation: Time-resolved FRET reads energy transfer from a long-lived donor to a nearby acceptor.

Series [4] concerns the target Estrogen Receptor (ERα) in MCF-7 cells (Homo sapiens (Human), UniProt P03372). In words: MCF-7 ER down-regulation assay (immuno-fluorescence). Format: cell-based. Here is the method:
The Echo uses acoustic technology to perform direct microplate-to-microplate transfers of DMSO compound solutions to assay plates. […] Cells were fixed at room temperature for 20 mins before being washed two times with 250 μL PBS/Proclin (PBS with a Biocide preservative) using a BioTek platewasher, 40 μL of PBS/Proclin was then added to all wells and the plates stored at 4° C. The fixing method described above was carried out on the Integrated Echo 2 workcell. Immunostaining was performed using an automated AutoElisa workcell. […] The plates were incubated overnight at 4° C. […] The mean total intensity was normalized for cell number giving the total intensity per cell. The data was exported into a suitable software package (such as Origin) to perform curve fitting analysis.

The nature of series [5]: Thermodynamic solubility (shake-flask). It counts as physicochemical. Particulars: aqueous phosphate buffer, 25 °C, pH 7.4, aqueous buffer, thermodynamic from solid, aqueous phosphate buffer pH 7.4, 24 hours. Here is the method: The thermodynamic solubility of a research compound is measured under standard conditions. It is a shake-flask approach that uses 10 mM DMSO solutions which are supplied from the Compound Managements liquid store and is a high throughput method. The dried compounds are equilibrated in an aqueous phosphate buffer (pH 7.4) for 24 hours at 25° C., the portion with the dissolved compound is then separated from the remains. The solutions are analyzed and quantified using UPLC/MS/MS, QC-samples are incorporated in each assay-run to ensure the quality of the assay.

Series [6] deals with hERG potassium channel (Homo sapiens (Human), UniProt Q12809). The experiment in a line: hERG binding assay (automated patch clamp, CHO cells). Format: cell-based. As to conditions: CHO cell line, Nanion Syncropatch 384PE. As to the method: Reagent preparations include: • 1.
Sequence of hERG potassium channel (Q12809 whole entry): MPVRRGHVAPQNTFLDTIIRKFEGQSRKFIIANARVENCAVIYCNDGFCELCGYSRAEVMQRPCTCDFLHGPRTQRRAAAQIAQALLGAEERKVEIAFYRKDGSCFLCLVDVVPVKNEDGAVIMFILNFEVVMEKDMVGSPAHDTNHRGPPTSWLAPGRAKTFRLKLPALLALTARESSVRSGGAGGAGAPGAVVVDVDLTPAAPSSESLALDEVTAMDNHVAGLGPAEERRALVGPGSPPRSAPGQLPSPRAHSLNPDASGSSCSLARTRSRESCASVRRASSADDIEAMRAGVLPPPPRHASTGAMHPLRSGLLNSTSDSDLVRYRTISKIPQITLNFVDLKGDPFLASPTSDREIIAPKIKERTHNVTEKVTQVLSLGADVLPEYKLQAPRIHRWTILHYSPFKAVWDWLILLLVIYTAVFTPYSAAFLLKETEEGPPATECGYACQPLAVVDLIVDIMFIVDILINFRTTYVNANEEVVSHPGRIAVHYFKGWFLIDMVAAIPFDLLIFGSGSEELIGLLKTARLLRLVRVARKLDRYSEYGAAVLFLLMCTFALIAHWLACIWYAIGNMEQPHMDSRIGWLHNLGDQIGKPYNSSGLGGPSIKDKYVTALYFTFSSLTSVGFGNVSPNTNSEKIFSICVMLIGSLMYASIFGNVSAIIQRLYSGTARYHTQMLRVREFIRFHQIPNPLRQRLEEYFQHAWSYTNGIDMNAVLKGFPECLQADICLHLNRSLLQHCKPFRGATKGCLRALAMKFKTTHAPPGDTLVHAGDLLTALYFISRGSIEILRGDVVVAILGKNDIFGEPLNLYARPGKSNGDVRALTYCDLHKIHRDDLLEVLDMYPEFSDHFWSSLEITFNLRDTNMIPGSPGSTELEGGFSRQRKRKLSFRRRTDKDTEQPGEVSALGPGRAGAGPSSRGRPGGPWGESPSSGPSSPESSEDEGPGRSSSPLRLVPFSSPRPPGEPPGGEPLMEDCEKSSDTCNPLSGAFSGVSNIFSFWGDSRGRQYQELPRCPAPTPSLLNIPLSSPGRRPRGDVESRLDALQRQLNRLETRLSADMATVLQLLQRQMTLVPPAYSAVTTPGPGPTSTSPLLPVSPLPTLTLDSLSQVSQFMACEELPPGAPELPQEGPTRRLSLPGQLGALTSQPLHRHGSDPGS
Cell preparations: • 1. If using cell culture; cells to be incubated at 30° C. for approximately 4-6 days prior to being used. Day of assay lift cells using accutase and re-suspend in 20 ml cell buffer to a density of 0.8 to 1e6 cells/ml. • 2. If using assay ready cryovials; rapidly thaw two cryovials at 37° C. and slowly pipette into 23 ml external solution • 3.
All compounds were acoustically dispensed in quadruplicate using a Labcyte Echo. […] Fill 384 well medium resistance 4 hole chips with 40 μl external buffer and perfuse internal buffer to the underside of plate. • 2. Dispense 20 μl of cells into each well of the chip followed by 20 μl of seal enhancer. • 3. Remove 40 μl of reagent from each well to the wash station, leaving a residual volume of 40 μl • 4. Dispense 40 μl of reference buffer with a removal step of 40 μl after 3 min, repeat this step. • 5.
hERG-mediated currents were elicited using a voltage step protocol consisting of acontinuous holding voltage of −80 mV, with a 500 ms step to 60 mV followed by a 500 ms step to −40 mV every 15 seconds. hERG current magnitude was measured automatically from the leak-subtracted traces by the Nanion software by taking the peak of the hERG “tail” current at −40 mV every 15 seconds and taking the last three of these responses for each concentration to generate the concentration-effect curve.
Calculation of results is performed using APC package within Genedata. For the routine normalization of well data with Neutral and Inhibitor control well groups as reference, GeneData Assay Analyzer uses the following equation to normalize the signal values to the desired signal range:
[formula] • x is the measured raw signal value of a well • is the median of the measured signal values for the Central Reference (Neutral) wells on a plate • is the median of the measured signal values for the Scale Reference (Inhibitor) wells on a plate • CR is the desired median normalized value for the Central Reference (Neutral) • SR is the desired median normalized value for the Scale Reference (Inhibitor)
On the technique in general: hERG is a cardiac potassium channel; its block is linked to QT prolongation.

[7] abbreviates: 1-octanol/aqueous buffer, pH 7.4, pH 7.4, 1-octanol/aqueous buffer.

pIC50: −log10 of the molar value. ≈ marks a conversion by molar mass, not a printed value. Where only a bound is given, the exact number is not on record here.

Broadly, the logD is lipophilicity at a set pH, counting ionised and neutral species. High values mean a more lipophilic compound, low ones a more hydrophilic compound. A word on the pIC50: it is the negative decadic logarithm of the IC50, by convention in mol/L. What is called solubility is the concentration that dissolves in the medium under given conditions. Read a high solubility as much dissolved substance.

Sequence of recombinant human Estrogen Receptor alpha ligand binding domain (ER alpha-LBD (GST)) (P03372 307-554): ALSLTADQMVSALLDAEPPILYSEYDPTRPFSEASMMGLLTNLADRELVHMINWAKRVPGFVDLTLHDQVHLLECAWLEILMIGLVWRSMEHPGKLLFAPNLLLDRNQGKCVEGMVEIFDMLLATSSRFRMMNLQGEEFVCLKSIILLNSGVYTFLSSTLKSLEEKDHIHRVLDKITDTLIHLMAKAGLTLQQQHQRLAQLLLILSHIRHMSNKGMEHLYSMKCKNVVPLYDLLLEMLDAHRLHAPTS
Sequence of Estrogen Receptor (ERα) in MCF-7 cells (P03372 whole entry): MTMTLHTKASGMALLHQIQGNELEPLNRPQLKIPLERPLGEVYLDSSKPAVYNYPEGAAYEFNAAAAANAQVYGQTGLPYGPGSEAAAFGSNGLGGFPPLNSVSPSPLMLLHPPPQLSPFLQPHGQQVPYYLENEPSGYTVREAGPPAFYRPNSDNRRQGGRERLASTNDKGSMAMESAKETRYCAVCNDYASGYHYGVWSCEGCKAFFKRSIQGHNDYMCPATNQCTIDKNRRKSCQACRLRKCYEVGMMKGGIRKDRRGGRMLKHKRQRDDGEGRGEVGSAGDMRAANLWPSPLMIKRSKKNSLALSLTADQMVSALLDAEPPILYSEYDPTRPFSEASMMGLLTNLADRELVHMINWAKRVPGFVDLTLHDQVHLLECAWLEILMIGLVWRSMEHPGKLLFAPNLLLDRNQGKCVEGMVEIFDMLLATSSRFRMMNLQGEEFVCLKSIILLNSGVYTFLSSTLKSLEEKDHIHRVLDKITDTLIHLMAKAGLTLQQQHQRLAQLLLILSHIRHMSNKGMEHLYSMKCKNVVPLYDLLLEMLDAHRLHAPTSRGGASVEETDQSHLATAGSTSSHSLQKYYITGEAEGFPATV

As to `C[C@@H]1Cc2c(ccc3[nH]ncc23)[C@@](C)(c2ccc(NC3CN(CCCF)C3)cn2)N1CC(F)F` [Example 44, 6-((6S,8R)-7-(2,2-difluoroethyl)-6,8-dimethyl-6,7,8,9-tetrahydro-3H-pyrazolo[4,3-f]isoquinolin-6-yl)-N-(1-(3-fluoropropyl)azetidin-3-yl)pyridin-3-amine], the “Human plasma protein binding (% free)” value in series [1] amounted to 10 % free. For the same molecule, in series [2] (pH 7.4, 1-octanol/aqueous buffer), the logD was 3.2. Also, the pIC50 in series [3] is 8.02; in series [4], 9.04. Also, the solubility at 24 h in series [5] was 998 µM (≈ 472 µg/mL).
`C[C@@H]1Cc2c(ccc3[nH]ncc23)[C@@H](c2ccc(OC3CN(CCCF)C3)cn2)N1CC(F)(F)CO` [Example 58, 2,2-difluoro-3-((6S,8R)-6-(5-((1-(3-fluoropropyl)azetidin-3-yl)oxy)pyridin-2-yl)-8-methyl-3,6,8,9-tetrahydro-7H-pyrazolo[4,3-f]isoquinolin-7-yl)propan-1-ol] displayed a logD in series [2] (setting [7]) of 2.4. Moreover, the pIC50 is under 4.40 in series [6], 8.68 in series [3] and 9.25 in series [4]. In series [5], this molecule yielded a solubility at 24 h of 633 µM (≈ 310 µg/mL).
On the same counts, the results for `C[C@@H]1Cc2c(ccc3[nH]ncc23)[C@@H](c2cnc(NC3CN(CCCF)C3)cn2)N1CC1(F)CC1` [Example 55, 5-((6S,8R)-7-((1-fluorocyclopropyl)methyl)-8-methyl-6,7,8,9-tetrahydro-3H-pyrazolo[4,3-f]isoquinolin-6-yl)-N-(1-(3-fluoropropyl)azetidin-3-yl)pyrazin-2-amine] are 2.1, under 4.40, 8.09, 8.96 and 987 µM (≈ 461 µg/mL).
The corresponding values for `C[C@@H]1Cc2c(ccc3[nH]ncc23)[C@@H](c2ccc(N(C)C3CN(CCCF)C3)cn2)N1CC1(F)CC1` [Example 57, 6-((6S,8R)-7-((1-fluorocyclopropyl)methyl)-8-methyl-6,7,8,9-tetrahydro-3H-pyrazolo[4 3-f]isoquinolin-6-yl)-N-(1-(3-fluoropropyl)azetidin-3-yl)-N-methylpyridin-3-amine] are 2.9, 4.80, 8.30, 9.44 and 615 µM (≈ 296 µg/mL).
With `COc1cc(NC2CN(CCCF)C2)ccc1[C@@H]1c2ccc3[nH]ncc3c2C[C@@H](C)N1CC1(CF)COC1` [Example 10, N-(4-((6S,8R)-7-((3-(fluoromethyl)oxetan-3-yl)methyl)-8-methyl-6,7,8,9-tetrahydro-3H-pyrazolo[4,3-f]isoquinolin-6-yl)-3-methoxyphenyl)-1-(3-fluoropropyl)azetidin-3-amine], the “Human plasma protein binding (% free)” value in series [1] is 23 % free. The molecule further displayed a logD in series [2] (setting [7]) of 2.8. Further, the pIC50 was 8.10 in series [3] and 9.59 in series [4]. In addition, in series [5], the solubility at 24 h stood at 634 µM (≈ 333 µg/mL).
In the case of `C[C@@H]1Cc2c(ccc3[nH]ncc23)[C@@H](c2ccc(N(C)C3CN(CCCF)C3)cn2)N1CC(F)F` [Example 43, 6-((6S,8R)-7-(2,2-difluoroethyl)-8-methyl-6,7,8,9-tetrahydro-3H-pyrazolo[4,3-f]isoquinolin-6-yl)-N-(1-(3-fluoropropyl)azetidin-3-yl)-N-methylpyridin-3-amine], the results for the pIC50 in series [3] and in series [4] were 8.39 and 9.60, respectively.
Take `C[C@@H]1Cc2c(ccc3[nH]ncc23)[C@@H](c2cnc(NC3CN(CCCF)C3)cn2)N1CC(F)F` [Example 50, 5-((6S,8R)-7-(2,2-difluoroethyl)-8-methyl-6,7,8,9-tetrahydro-3H-pyrazolo[4,3-f]isoquinolin-6-yl)-N-(1-(3-fluoropropyl)azetidin-3-yl)pyrazin-2-amine]: in series [2] (setting [7]), the logD came to 2.1. Further, the negative-log IC50 (pIC50) in series [6] is 4.89; in series [3], 8.57; in series [4], 9.33. In series [5], this molecule came in with a solubility at 24 h of 748 µM (≈ 344 µg/mL).
As to `CCOc1cc(NC2CN(CCCF)C2)ccc1[C@@H]1c2ccc3[nH]ncc3c2C[C@@H](C)N1CC1(F)CC1` [Example 20, N-(3-ethoxy-4-((6S,8R)-7-((1-fluorocyclopropyl)methyl)-8-methyl-6,7,8,9-tetrahydro-3H-pyrazolo[4,3-f]isoquinolin-6-yl)phenyl)-1-(3-fluoropropyl)azetidin-3-amine], in series [1], the “Human plasma protein binding (% free)” value was 29 % free. The logD in series [2] (setting [7]) worked out at 2.8. Further, the negative logarithm of the IC50 (pIC50) is 7.82 in series [3] and 9.44 in series [4]. The molecule also showed a solubility at 24 h in series [5] of 730 µM (≈ 372 µg/mL).
Consider `C[C@@H]1Cc2c(ccc3[nH]ncc23)[C@@H](c2c(F)cc(NC3CN(CCCF)C3)cc2F)N1CC(C)(F)CO` (single isomer, unassigned) [Example 23], for which, in series [1], the “Human plasma protein binding (% free)” value is given as 9.5 % free. Further, the logD in series [2] (setting [7]) came out at 3.1. Besides, the negative logarithm of the IC50 (pIC50) in series [3] was 7.82. Also, the DC50 in series [4] (read-out: ER down regulation IC50 value) came to 0.15 nM. In series [5], this molecule yielded a solubility at 24 h of 339 µM (≈ 176 µg/mL).
Consider `COc1cc(OC2CN(CCCF)C2)ccc1[C@@H]1c2ccc3[nH]ncc3c2C[C@@H](C)N1CC(F)F` [Example 22, (6S,8R)-7-(2,2-difluoroethyl)-6-(4-((1-(3-fluoropropyl)azetidin-3-yl)oxy)-2-methoxyphenyl)-8-methyl-6,7,8,9-tetrahydro-3H-pyrazolo[4,3-f]isoquinoline], for which the “Human plasma protein binding (% free)” value in series [1] turned out to be 4.6 % free. In series [2] (setting [7]), the logD was determined as 4. Moreover, the negative-log IC50 (pIC50) in series [3] is 8.24; in series [4], 10.21. In series [5], the solubility at 24 h was 70 µM (≈ 34.2 µg/mL).
